Measured values from PMC9782245, “Synthesis and Structural Optimization of 2,7,9-Trisubstituted purin-8-ones as FLT3-ITD Inhibitors” (International Journal of Molecular Sciences, 2022).
Values joined by “and” are separate entries in the source; they are usually repeats but may differ in a detail not shown here. Equal entries are not always repeated. Where two headings read alike, the source gives them in different places.

Experiments:
MV4-11 cells = test: Resazurin-based viability assay, MV4-11; format: cell-based, Human; details: for GI50: Homo sapiens, MV4-11, 72 h, resazurin, at least duplicate experiments
Source text: (§1) In parallel to kinase assays, we measured the effect of compounds on the viability of cancer cell lines MV4-11 and K562 using a resazurin-based assay. MV4-11 is an AML cell line dependent on a constitutively activated FLT3-ITD kinase with high sensitivity to FLT3 inhibition, K562 cells (chronic myelogenous leukemia) are independent on FLT3.
(§2) Human cell lines were obtained from the European Collection of Authenticated Cell Cultures (K562) and Cell lines service (MV4-11) and were cultivated according to the provider’s instructions. Briefly, cells were maintained in RPMI-1640 (MV4-11) or DMEM (K562) supplemented with 10% fetal bovine serum, penicillin (100 U/mL), and streptomycin (0.1 mg/mL) at 37 °C in 5% CO2. For the viability assays, cells were treated in triplicate with six different doses of each compound for 72 h. After treatments, the resazurin (Sigma Aldrich, St. Louis, MO, USA) solution was added for 4 h, and the fluorescence of resorufin corresponding to live cells was measured at 544/590 nm (excitation/emission) using a Fluoroskan Ascent microplate reader (Labsystems). The GI50 value, the drug concentration lethal to 50% of the cells, was calculated from the dose-response curves that resulted from the assays.

K562 cells = test: Resazurin-based viability assay, K562; format: cell-based; details: Homo sapiens, 72 h, at least duplicate experiments
Source text: as §1, §2

CDK2/E = CDK2/E (Homo sapiens, UniProt P24941); test: Kinase inhibition assay CDK2/E; format: biochemical
Description: (§3) Newly prepared compounds 12–15 were assayed for inhibition of FLT3-ITD kinase as well as CDK4 and CDK2, known off-targets of structurally related compounds. We observed that CDK4 was sensitive to nearly all compounds with IC50 values in mid-nanomolar values.
(§4) CDK/cyclin complexes and FLT3 kinases were assayed as previously described. Protein kinase selectivity was evaluated at a single concentration (1 µM) by screening against 30 enzymes at Eurofins Discovery (France).

CDK4/D1 = CDK4/D1 (Homo sapiens, UniProt P11802); test: Kinase inhibition assay CDK4/D1; format: biochemical
Sequence of CDK4/D1 (P11802 whole entry): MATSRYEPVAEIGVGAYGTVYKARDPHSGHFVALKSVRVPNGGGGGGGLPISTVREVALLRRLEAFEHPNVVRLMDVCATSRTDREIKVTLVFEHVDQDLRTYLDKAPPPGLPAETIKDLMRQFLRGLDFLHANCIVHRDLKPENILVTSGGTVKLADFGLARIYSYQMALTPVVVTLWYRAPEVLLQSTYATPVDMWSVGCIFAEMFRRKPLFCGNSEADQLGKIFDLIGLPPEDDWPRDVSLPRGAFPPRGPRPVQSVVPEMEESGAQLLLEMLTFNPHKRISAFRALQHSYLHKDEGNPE
Sequence of CDK4/D1 (P24385 whole entry partner): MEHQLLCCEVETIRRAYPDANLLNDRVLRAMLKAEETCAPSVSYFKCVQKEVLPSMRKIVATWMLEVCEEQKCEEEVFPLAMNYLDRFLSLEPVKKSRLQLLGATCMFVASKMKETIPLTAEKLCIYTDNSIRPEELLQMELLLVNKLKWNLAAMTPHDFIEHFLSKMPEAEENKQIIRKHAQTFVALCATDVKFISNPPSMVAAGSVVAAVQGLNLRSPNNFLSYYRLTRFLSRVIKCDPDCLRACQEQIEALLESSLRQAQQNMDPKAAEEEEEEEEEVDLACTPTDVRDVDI
Description: as §3, §4

FLT3-ITD = target: T1, FLT3-ITD (Homo sapiens, UniProt P36888, ITD); test: Kinase inhibition assay FLT3-ITD; format: biochemical
T1 sequence (P36888 27-993): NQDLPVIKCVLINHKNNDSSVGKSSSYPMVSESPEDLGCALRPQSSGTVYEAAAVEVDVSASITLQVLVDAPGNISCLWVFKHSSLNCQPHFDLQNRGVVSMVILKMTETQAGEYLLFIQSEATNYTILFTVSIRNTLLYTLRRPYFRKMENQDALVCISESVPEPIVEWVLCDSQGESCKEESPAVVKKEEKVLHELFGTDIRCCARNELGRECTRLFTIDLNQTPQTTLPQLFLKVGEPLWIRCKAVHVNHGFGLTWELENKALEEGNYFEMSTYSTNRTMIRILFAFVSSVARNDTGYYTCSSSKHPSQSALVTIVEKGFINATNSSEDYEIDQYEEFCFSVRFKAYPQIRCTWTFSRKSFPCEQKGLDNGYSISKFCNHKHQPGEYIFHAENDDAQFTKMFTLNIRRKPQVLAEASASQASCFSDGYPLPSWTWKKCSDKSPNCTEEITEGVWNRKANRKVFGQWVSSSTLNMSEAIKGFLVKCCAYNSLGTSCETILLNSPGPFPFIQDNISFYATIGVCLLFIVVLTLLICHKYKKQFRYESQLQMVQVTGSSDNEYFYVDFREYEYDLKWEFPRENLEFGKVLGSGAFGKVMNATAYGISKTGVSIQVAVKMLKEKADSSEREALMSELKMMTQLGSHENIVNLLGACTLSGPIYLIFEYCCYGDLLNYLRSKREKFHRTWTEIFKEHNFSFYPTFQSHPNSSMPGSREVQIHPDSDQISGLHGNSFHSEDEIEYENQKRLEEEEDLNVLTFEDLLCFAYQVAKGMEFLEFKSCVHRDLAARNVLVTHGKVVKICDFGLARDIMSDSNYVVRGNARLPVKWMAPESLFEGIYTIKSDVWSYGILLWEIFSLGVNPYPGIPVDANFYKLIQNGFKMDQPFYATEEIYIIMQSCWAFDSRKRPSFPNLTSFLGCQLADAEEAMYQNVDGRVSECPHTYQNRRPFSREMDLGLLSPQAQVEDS
Description: as §3, §4

[1] = at least duplicate experiments, read-out: IC50 CDK2/E
[2] = at least duplicate experiments, read-out: IC50 CDK4/D1
[3] = at least duplicate experiments, read-out: IC50 FLT3-ITD

GI50 (MV4-11 cells) [nM] | GI50 (K562 cells) [nM] | IC50 (CDK2/E; [1]) | IC50 (CDK4/D1; [2]) | IC50 (FLT3-ITD; [3]) [nM] | melting point [°C] | IC50 (CDK4/D1; read-out: IC50 CDK4) [nM] | IC50 (FLT3-ITD; read-out: IC50 FLT3) [nM] | IC50 (CDK2/E; read-out: IC50 CDK2) [nM] | SMILES | selectivity index (ratio for GI50's of K562 and MV4-11 cells) (MV4-11 cells; K562 / MV4-11)
220 | 1110 | 1630 nM | 51 nM | 224 | 232 to 234 | – | – | – | FC(F)(F)c1nc2cnc(Nc3ccc(N4CCNCC4)cc3)nc2n1C1CCCC1 [12a] | –
110 | 1170 | 230 nM | 16 nM | 60 | 218 to 220 | – | – | – | FC(F)(F)c1nc2cnc(Nc3ccc(N4CCNCC4)cc3)nc2n1C1CCCCC1 [12b] | –
250 | 2450 | 150 nM | 22 nM | 88 | 216 to 218 | – | – | – | FC(F)(F)c1nc2cnc(Nc3ccc(N4CCNCC4)cc3)nc2n1C1CCCCCC1 [12d] | –
680 | 1630 | 24500 nM | 2880 nM | 2370 | 200 to 202 | – | – | – | O=c1[nH]c2cnc(Nc3ccc(N4CCNCC4)cc3)nc2n1C1CCCC1 [13a] | –
690 | 1780 | 3360 nM | 782 nM | 1590 | – | – | – | – | O=c1[nH]c2cnc(Nc3ccc(N4CCNCC4)cc3)nc2n1C1CCCCC1 [13b] | –
700 | 1900 | 2560 nM | 451 nM | 1050 | – | – | – | – | CC1CCC(n2c(=O)[nH]c3cnc(Nc4ccc(N5CCNCC5)cc4)nc32)CC1 (stereo not shown) [13c] | –
560 | 1580 | 1000 nM | 479 nM | 425 | – | – | – | – | O=c1[nH]c2cnc(Nc3ccc(N4CCNCC4)cc3)nc2n1C1CCCCCC1 [13d] | –
710 | 45300 | > 20000 nM | > 1000 nM and 8020 nM | 642 | 156 to 158 | – | – | – | Cn1c(=O)n(C2CC2)c2nc(Nc3ccc(N4CCNCC4)cc3)ncc21 [14b] | –
110 | 1040 | 3900 nM | 524 nM | 56 | – | 400 to 520 | 50 to 60 | – | Cn1c(=O)n(C2CCC2)c2nc(Nc3ccc(N4CCNCC4)cc3)ncc21 [14c] | –
510 | 9370 | > 1000 nM and 2870 nM | 250 nM | 132 | 272 to 274 | – | – | – | Cn1c(=O)n([C@H]2CC[C@H](O)CC2)c2nc(Nc3ccc(N4CCNCC4)cc3)ncc21 [14f] | –
110 | 1260 | 180 nM | 27 nM | 68 | 114 to 116 | ≤ 300 | ≤ 300 | ≤ 300 | Cn1c(=O)n([C@H]2CC[C@H](C)CC2)c2nc(Nc3ccc(N4CCNCC4)cc3)ncc21 [14g] | –
100 | 1480 | 60 nM | 22 nM | 34 | 256 to 258 | ≤ 300 | ≤ 300 | ≤ 300 | Cn1c(=O)n(C2CCCCCC2)c2nc(Nc3ccc(N4CCNCC4)cc3)ncc21 [14h] | –
90 | 2460 | 90 nM | 25 nM | 12 | – | ≤ 300 | ≤ 300 | ≤ 300 | Cn1c(=O)n(C2CCCCCCC2)c2nc(Nc3ccc(N4CCNCC4)cc3)ncc21 [14i] | > 20
590 | 18200 | > 1000 nM and 9250 nM | > 1000 nM and 2530 nM | 450 | 124 to 126 | – | – | – | Cn1c(=O)n(C2CCOCC2)c2nc(Nc3ccc(N4CCNCC4)cc3)ncc21 [14k] | –
340 | 3030 | 3740 nM | 400 nM | 54 | 120 to 122 | 400 to 520 | 50 to 60 | – | Cn1c(=O)n(-c2ccccc2)c2nc(Nc3ccc(N4CCNCC4)cc3)ncc21 [14m] | –
460 | 7620 | > 1000 nM and 2400 nM | 169 nM | 160 | 126 to 128 | – | – | – | Cc1ccc(-n2c(=O)n(C)c3cnc(Nc4ccc(N5CCNCC5)cc4)nc32)cc1 [14o] | –
310 | 370 | 1590 nM | 2720 nM | 306 | 185 to 187 | – | – | – | COc1ccccc1-n1c(=O)n(C)c2cnc(Nc3ccc(N4CCNCC4)cc3)nc21 [14p] | –
400 | 1970 | > 1000 nM and 6180 nM | 488 nM | 262 | 270 to 272 | – | – | – | COc1ccc(-n2c(=O)n(C)c3cnc(Nc4ccc(N5CCNCC5)cc4)nc32)cc1 [14q] | –
900 | 11900 | > 1000 nM and 20000 nM | > 20000 nM | 456 | 102 to 104 | – | – | – | COc1ccc(Cn2c(=O)n(C)c3cnc(Nc4ccc(N5CCNCC5)cc4)nc32)c(OC)c1 [14r] | –
330 | 2530 | > 1000 nM and 9530 nM | > 1000 nM and 6900 nM | 850 | – | – | – | – | Cn1c(=O)n(-c2cccc3ccccc23)c2nc(Nc3ccc(N4CCNCC4)cc3)ncc21 [14s] | –
520 | 2290 | > 1000 nM and 7700 nM | 216 nM | 345 | 248 to 250 | – | – | – | Cn1c(=O)n(C=Cc2ccc(F)cc2)c2nc(Nc3ccc(N4CCNCC4)cc3)ncc21 [14t] | –
130 | 1510 | 10300 nM | 2120 nM | 68 | 132 to 134 | – | – | – | CC(C)n1c(=O)n(C2CCCCC2)c2nc(Nc3ccc(N4CCNCC4)cc3)ncc21 [15b] | –
130 | 1450 | 4140 nM | 1100 nM | 40 | 264 to 266 | – | – | – | CC1CCC(n2c(=O)n(C(C)C)c3cnc(Nc4ccc(N5CCNCC5)cc4)nc32)CC1 (stereo not shown) [15c] | –
100 | 1180 | 2320 nM | 1100 nM | 27 | – | – | – | – | CC(C)n1c(=O)n(C2CCCCCC2)c2nc(Nc3ccc(N4CCNCC4)cc3)ncc21 [15d] | –
